Experimental data as given in ChEMBL document CHEMBL1201861, “Genomics of Drug Sensitity in Cancer screening data, Wellcome Trust Sanger Institute”.

Key:
T98G = experiment: cells; assay type: functional, cell-based; conditions: Homo sapiens
Description: SANGER: Inhibition of human T98G cell growth in a cell viability assay.

A 172 = experiment: cells; assay type: functional, cell-based; conditions: Homo sapiens
Description: SANGER: Inhibition of human A172 cell growth in a cell viability assay.

HCC1954 = experiment: cells; assay type: functional, cell-based; conditions: Homo sapiens
Description: SANGER: Inhibition of human HCC1954 cell growth in a cell viability assay.

GMS-10 = experiment: cells; assay type: functional, cell-based; conditions: Homo sapiens
Description: SANGER: Inhibition of human GMS-10 cell growth in a cell viability assay.

COLO-792 = experiment: cells; assay type: functional, cell-based; conditions: Homo sapiens
Description: SANGER: Inhibition of human COLO-792 cell growth in a cell viability assay.

CAL-51 = experiment: cells; assay type: functional, cell-based; conditions: Homo sapiens
Description: SANGER: Inhibition of human CAL-51 cell growth in a cell viability assay.

UMUC3 = experiment: cells; assay type: functional, cell-based; conditions: Homo sapiens
Description: SANGER: Inhibition of human UM-UC-3 cell growth in a cell viability assay.

ACHN = experiment: cells; assay type: functional, cell-based; conditions: Homo sapiens
Description: SANGER: Inhibition of human ACHN cell growth in a cell viability assay.

A204 = experiment: cells; assay type: functional, cell-based; conditions: Homo sapiens
Description: SANGER: Inhibition of human A204 cell growth in a cell viability assay.

HuO-3N1 = experiment: cells; assay type: functional, cell-based; conditions: Homo sapiens
Description: SANGER: Inhibition of human HuO-3N1 cell growth in a cell viability assay.

LoVo = experiment: cells; assay type: functional, cell-based; conditions: Homo sapiens
Description: SANGER: Inhibition of human LoVo cell growth in a cell viability assay.

EFM-19 = experiment: cells; assay type: functional, cell-based; conditions: Homo sapiens
Description: SANGER: Inhibition of human EFM-19 cell growth in a cell viability assay.

NCI-H2009 = experiment: cells; assay type: functional, cell-based; conditions: Homo sapiens
Description: SANGER: Inhibition of human NCI-H2009 cell growth in a cell viability assay.

NCI-H2347 = experiment: cells; assay type: functional, cell-based; conditions: Homo sapiens
Description: SANGER: Inhibition of human NCI-H2347 cell growth in a cell viability assay.

ABC-1 = experiment: cells; assay type: functional, cell-based; conditions: Homo sapiens
Description: SANGER: Inhibition of human ABC-1 cell growth in a cell viability assay.

KYSE-180 = experiment: cells; assay type: functional, cell-based; conditions: Homo sapiens
Description: SANGER: Inhibition of human KYSE-180 cell growth in a cell viability assay.

HuP-T3 = experiment: cells; assay type: functional, cell-based; conditions: Homo sapiens
Description: SANGER: Inhibition of human HuP-T3 cell growth in a cell viability assay.

NCI-H2030 = experiment: cells; assay type: functional, cell-based; conditions: Homo sapiens
Description: SANGER: Inhibition of human NCI-H2030 cell growth in a cell viability assay.

MDA-MB-415 = experiment: cells; assay type: functional, cell-based; conditions: Homo sapiens
A2058 = experiment: cells; assay type: functional, cell-based; conditions: Homo sapiens
Description: SANGER: Inhibition of human A2058 cell growth in a cell viability assay.

NCI-H441 = experiment: cells; assay type: functional, cell-based; conditions: Homo sapiens
Description: SANGER: Inhibition of human NCI-H441 cell growth in a cell viability assay.

LK-2 = experiment: cells; assay type: functional, cell-based; conditions: Homo sapiens
Description: SANGER: Inhibition of human LK-2 cell growth in a cell viability assay.

J82 = experiment: cells; assay type: functional, cell-based; conditions: Homo sapiens
Description: SANGER: Inhibition of human J82 cell growth in a cell viability assay.

NCI-H1703 = experiment: cells; assay type: functional, cell-based; conditions: Homo sapiens
Description: SANGER: Inhibition of human NCI-H1703 cell growth in a cell viability assay.

KYSE-510 = experiment: cells; assay type: functional, cell-based; conditions: Homo sapiens
Description: SANGER: Inhibition of human KYSE-510 cell growth in a cell viability assay.

Calu-3 = experiment: cells; assay type: functional, cell-based; conditions: Homo sapiens
Description: SANGER: Inhibition of human Calu-3 cell growth in a cell viability assay.

YAPC = experiment: cells; assay type: functional, cell-based; conditions: Homo sapiens
Description: SANGER: Inhibition of human YAPC cell growth in a cell viability assay.

SAOS-2 = experiment: cells; assay type: functional, cell-based; conditions: Homo sapiens
Description: SANGER: Inhibition of human Saos-2 cell growth in a cell viability assay.

COLO-679 = experiment: cells; assay type: functional, cell-based; conditions: Homo sapiens
Description: SANGER: Inhibition of human COLO-679 cell growth in a cell viability assay.

BXPC-3 = experiment: cells; assay type: functional, cell-based; conditions: Homo sapiens
Description: SANGER: Inhibition of human BxPC-3 cell growth in a cell viability assay.

SCC-25 = experiment: cells; assay type: functional, cell-based; conditions: Homo sapiens
Description: SANGER: Inhibition of human SCC-25 cell growth in a cell viability assay.

SK-HEP1 = experiment: cells; assay type: functional, cell-based, SK-HEP-1; conditions: Homo sapiens
Description: SANGER: Inhibition of human SK-HEP-1 cell growth in a cell viability assay.

CP66-MEL = experiment: cells; assay type: functional, cell-based; conditions: Homo sapiens
Description: SANGER: Inhibition of human CP66-MEL cell growth in a cell viability assay.

COLO-741 = experiment: cells; assay type: functional, cell-based; conditions: Homo sapiens
Description: SANGER: Inhibition of human COLO-741 cell growth in a cell viability assay.

HOP-92 = experiment: cells; assay type: functional, cell-based; conditions: Homo sapiens
Description: SANGER: Inhibition of human HOP-92 cell growth in a cell viability assay.

HCC70 = experiment: cells; assay type: functional, cell-based; conditions: Homo sapiens
Description: SANGER: Inhibition of human HCC70 cell growth in a cell viability assay.

NB7 = experiment: cells; assay type: functional, cell-based, Homo sapiens; conditions: Homo sapiens, NB7
Description: SANGER: Inhibition of human NB7 cell growth in a cell viability assay.

OVCAR-3 = experiment: cells; assay type: functional, cell-based; conditions: Homo sapiens
Description: SANGER: Inhibition of human OVCAR-3 cell growth in a cell viability assay.

Ca-Ski = experiment: cells; assay type: functional, cell-based; conditions: Homo sapiens
Description: SANGER: Inhibition of human Ca-Ski cell growth in a cell viability assay.

CAKI-1 = experiment: cells; assay type: functional, cell-based; conditions: Homo sapiens
Description: SANGER: Inhibition of human CAKI-1 cell growth in a cell viability assay.

M14 = experiment: cells; assay type: functional, cell-based; conditions: Homo sapiens
Description: SANGER: Inhibition of human M14 cell growth in a cell viability assay.

KP-4 = experiment: cells; assay type: functional, cell-based; conditions: Homo sapiens
Description: SANGER: Inhibition of human KP-4 cell growth in a cell viability assay.

FaDu = experiment: cells; assay type: functional, cell-based; conditions: Homo sapiens
Description: SANGER: Inhibition of human FADU cell growth in a cell viability assay.

NCI-H1792 = experiment: cells; assay type: functional, cell-based; conditions: Homo sapiens
Description: SANGER: Inhibition of human NCI-H1792 cell growth in a cell viability assay.

HT-29 = experiment: cells; assay type: functional, cell-based; conditions: Homo sapiens
Description: SANGER: Inhibition of human HT-29 cell growth in a cell viability assay.

NCI-H2405 = experiment: cells; assay type: functional, cell-based; conditions: Homo sapiens
Description: SANGER: Inhibition of human NCI-H2405 cell growth in a cell viability assay.

SR = experiment: cells; assay type: functional, cell-based, Homo sapiens; conditions: Homo sapiens, SR
Description: SANGER: Inhibition of human SR cell growth in a cell viability assay.

KMS-12-PE = experiment: cells; assay type: functional, cell-based, Homo sapiens; conditions: Homo sapiens, KMS-12-PE
Description: SANGER: Inhibition of human KMS-12-PE cell growth in a cell viability assay.

MDA-MB-134-VI = experiment: cells; assay type: functional, cell-based, Homo sapiens; conditions: Homo sapiens, MDA-MB-134-VI
Description: SANGER: Inhibition of human MDA-MB-134-VI cell growth in a cell viability assay.

CMK = experiment: cells; assay type: functional, cell-based, Homo sapiens; conditions: Homo sapiens, CMK
Description: SANGER: Inhibition of human CMK cell growth in a cell viability assay.

NCI-H1963 = experiment: cells; assay type: functional, cell-based, Homo sapiens; conditions: Homo sapiens, NCI-H1963
Description: SANGER: Inhibition of human NCI-H1963 cell growth in a cell viability assay.

SCC-3 = experiment: cells; assay type: functional, cell-based, Homo sapiens; conditions: Homo sapiens, SCC-3
Description: SANGER: Inhibition of human SCC-3 cell growth in a cell viability assay.

LB647-SCLC = experiment: cells; assay type: functional, cell-based, Homo sapiens; conditions: Homo sapiens, LB647-SCLC
Description: SANGER: Inhibition of human LB647-SCLC cell growth in a cell viability assay.

TALL-1 = experiment: cells; assay type: functional, cell-based, Homo sapiens; conditions: Homo sapiens, TALL-1
Description: SANGER: Inhibition of human TALL-1 cell growth in a cell viability assay.

BOKU = experiment: cells; assay type: functional, cell-based; conditions: Homo sapiens
Description: SANGER: Inhibition of human BOKU cell growth in a cell viability assay.

MONO-MAC-6 = experiment: cells; assay type: functional, cell-based, Homo sapiens; conditions: Homo sapiens, MONO-MAC-6
Description: SANGER: Inhibition of human MONO-MAC-6 cell growth in a cell viability assay.

DG-75 = experiment: cells; assay type: functional, cell-based, Homo sapiens; conditions: Homo sapiens, DG-75
Description: SANGER: Inhibition of human DG-75 cell growth in a cell viability assay.

SIMA = experiment: cells; assay type: functional, cell-based, Homo sapiens; conditions: Homo sapiens, SIMA
Description: SANGER: Inhibition of human SIMA cell growth in a cell viability assay.

RL = experiment: cells; assay type: functional, cell-based, Homo sapiens; conditions: Homo sapiens, RL
Description: SANGER: Inhibition of human RL cell growth in a cell viability assay.

RPMI 8402 = experiment: SANGER: Inhibition of human RPMI-8402 cell growth in a cell viability assay.; assay type: functional, cell-based; conditions: Homo sapiens, RPMI 8402

## CN(NC(=O)CC(=O)NN(C)C(=S)c1ccccc1)C(=S)c1ccccc1 [ELESCLOMOL]
T98G
  IC50: 34.3 nM
A 172
  IC50: 20.9 nM
HCC1954
  IC50: > 200 nM
GMS-10
  IC50: 107 nM
COLO-792
  IC50: 28.8 nM
CAL-51
  IC50: < 0.781 nM
UMUC3
  IC50: 7.06 nM
ACHN
  IC50: > 200 nM
A204
  IC50: 8.85 nM
HuO-3N1
  IC50: 24 nM
LoVo
  IC50: 78.6 nM
EFM-19
  IC50: 82.5 nM
NCI-H2009
  IC50: > 200 nM
NCI-H2347
  IC50: 28.7 nM
ABC-1
  IC50: 0.365 nM
KYSE-180
  IC50: 23.8 nM
HuP-T3
  IC50: 55.8 nM
NCI-H2030
  IC50: 26.4 nM
MDA-MB-415
  IC50: 137 nM
A2058
  IC50: 13.9 nM
NCI-H441
  IC50: > 200 nM
LK-2
  IC50: 19.7 nM
J82
  IC50: 14.1 nM
NCI-H1703
  IC50: 3.68 nM
KYSE-510
  IC50: 110 nM
Calu-3
  IC50: > 200 nM
YAPC
  IC50: 70.3 nM
SAOS-2
  IC50: 11.1 nM
COLO-679
  IC50: 14.1 nM
BXPC-3
  IC50: > 200 nM
SCC-25
  IC50: 23 nM
SK-HEP1
  IC50: > 200 nM
CP66-MEL
  IC50: 55.1 nM
COLO-741
  IC50: 176 nM
HOP-92
  IC50: 12.7 nM
HCC70
  IC50: 53.1 nM
NB7
  IC50: 14.4 nM
OVCAR-3
  IC50: 6.2 nM
Ca-Ski
  IC50: > 200 nM
CAKI-1
  IC50: 24.1 nM
M14
  IC50: 122 nM
KP-4
  IC50: 2.17 nM
FaDu
  IC50: 5.66 nM
NCI-H1792
  IC50: > 200 nM
HT-29
  IC50: > 200 nM
NCI-H2405
  IC50: 51 nM

## C[C@@H](Oc1cc(-c2cnn(C3CCNCC3)c2)cnc1N)c1c(Cl)ccc(F)c1Cl [CRIZOTINIB]
SR
  IC50: 126 nM
KMS-12-PE
  IC50: > 2 µM
MDA-MB-134-VI
  IC50: > 2 µM
CMK
  IC50: 1960 nM
NCI-H1963
  IC50: > 2 µM
SCC-3
  IC50: 357 nM
LB647-SCLC
  IC50: > 2 µM
TALL-1
  IC50: > 2 µM
BOKU
  IC50: > 2 µM
MONO-MAC-6
  IC50: > 2000 nM
DG-75
  IC50: > 2 µM
SIMA
  IC50: > 2 µM
CP66-MEL
  IC50: > 2000 nM
RL
  IC50: > 2 µM
NB7
  IC50: > 2000 nM
RPMI 8402
  IC50: > 2 µM

## Cc1cc(N2CCOCC2)cc2[nH]c(-c3c(NC[C@@H](O)c4cccc(Cl)c4)cc[nH]c3=O)nc12
SR
  IC50: 2050 nM
KMS-12-PE
  IC50: > 5.12 µM
MDA-MB-134-VI
  IC50: > 5.12 µM
CMK
  IC50: 745 nM
NCI-H1963
  IC50: > 5.12 µM
SCC-3
  IC50: > 5120 nM
LB647-SCLC
  IC50: > 5.12 µM
TALL-1
  IC50: > 5.12 µM
BOKU
  IC50: 3.15 µM
MONO-MAC-6
  IC50: 608 nM
DG-75
  IC50: > 5.12 µM
SIMA
  IC50: > 5.12 µM
CP66-MEL
  IC50: > 5120 nM
RL
  IC50: > 5.12 µM
NB7
  IC50: > 5120 nM
RPMI 8402
  IC50: > 5.12 µM

## C=CC(=O)N1CCCC(Nc2nc(Nc3ccc(N(C)C(=O)CC)cc3)nc3[nH]cnc23)C1 (stereo not given)
SR
  IC50: > 10200 nM
KMS-12-PE
  IC50: > 10.2 µM
MDA-MB-134-VI
  IC50: > 10.2 µM
CMK
  IC50: > 10200 nM
NCI-H1963
  IC50: > 10.2 µM
SCC-3
  IC50: > 10200 nM
LB647-SCLC
  IC50: > 10.2 µM
TALL-1
  IC50: > 10.2 µM
BOKU
  IC50: > 10.2 µM
MONO-MAC-6
  IC50: > 10200 nM
DG-75
  IC50: > 10.2 µM
SIMA
  IC50: > 10.2 µM
CP66-MEL
  IC50: > 10200 nM
RL
  IC50: > 10.2 µM
NB7
  IC50: > 10200 nM
RPMI 8402
  IC50: > 10.2 µM

## NC(=O)c1cccc(-c2cc(Nc3ccc(OC(F)(F)F)cc3)ncn2)c1
SR
  IC50: > 1280 nM
KMS-12-PE
  IC50: > 1.28 µM
MDA-MB-134-VI
  IC50: > 1.28 µM
CMK
  IC50: > 1280 nM
NCI-H1963
  IC50: > 1.28 µM
SCC-3
  IC50: > 1280 nM
LB647-SCLC
  IC50: > 1.28 µM
TALL-1
  IC50: > 1.28 µM
BOKU
  IC50: > 1.28 µM
MONO-MAC-6
  IC50: > 1280 nM
DG-75
  IC50: > 1.28 µM
SIMA
  IC50: > 1.28 µM
CP66-MEL
  IC50: > 1280 nM
RL
  IC50: > 1.28 µM
NB7
  IC50: > 1280 nM
RPMI 8402
  IC50: > 1.28 µM
